Laboratory results published in patent publication US8575156B2, “Cyclic inhibitors of 11β-hydroxysteroid dehydrogenase 1” (Vitae Pharmaceuticals, Inc., priority 2007, dated 2013).
Where two headings read alike, the source gives them in different places.

Biological target: 11β-HSD1 (Homo sapiens, UniProt P28845)
Assay: biochemical
Details: for IC50: IC50 Range
[1] = Biological Test Example 1, microsomes from CHO cells overexpressing human 11β-HSD1
[2] = read-out: Average % inhibition at 100 nM, Biological Test Example 1, 100 nM compound
[3] = read-out: Average % inhibition at 111.1 nM, Biological Test Example 1, 111.1 nM compound
[4] = read-out: Average % inhibition at 100 nM, Biological Test Example 1, 100 nM

11β-HSD1, sequence (P28845 whole entry): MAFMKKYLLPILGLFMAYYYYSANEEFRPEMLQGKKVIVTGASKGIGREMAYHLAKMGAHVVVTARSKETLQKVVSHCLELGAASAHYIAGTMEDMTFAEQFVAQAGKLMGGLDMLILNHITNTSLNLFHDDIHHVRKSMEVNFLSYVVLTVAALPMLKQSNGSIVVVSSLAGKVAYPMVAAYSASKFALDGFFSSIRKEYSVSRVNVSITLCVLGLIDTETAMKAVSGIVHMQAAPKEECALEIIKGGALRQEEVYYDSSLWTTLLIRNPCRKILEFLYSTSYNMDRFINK

SMILES	IC50 [1]	inhibition at 0.1 µM [4]	also measured
CC[C@@H](c1ccc(-c2ccc(F)cc2F)cc1)N1CC[C@](CCCO)(c2ccccc2)OC1=O [EXAMPLE 253, (R)-3-((S)-1-(2′,4′-difluorobiphenyl-4-yl)propyl)-6-(3-hydroxypropyl)-6-phenyl-1,3-oxazinan-2-one]	< 100 nM	–	inhibition at 0.1 µM [2]: 93.3%
O=C1OC(CCO)(c2ccccc2F)CCN1c1ccc(F)c(-c2ccc(F)cc2F)c1 (stereo not drawn) [EXAMPLE 106, 6-(2-fluorophenyl)-6-(2-hydroxyethyl)-3-(2′,4′,6-trifluorobiphenyl-3-yl)-1,3-oxazinan-2-one]	< 100 nM	–	inhibition at 0.1111 µM [3]: 88.7%
CC1(c2cccc(Cl)c2)CCN(c2cccc(N3CCCCC3)n2)C(=O)O1 (stereo not drawn) [EXAMPLE 53, 6-(3-chlorophenyl)-6-methyl-3-(6-(piperidin-1-yl)pyridin-2-yl)-1,3-oxazinan-2-one]	< 100 nM	–	inhibition at 0.1111 µM (read-out: Average % inhibition at 111.1 nM): 57.1%
CC[C@@H](c1ccc(-c2ccc(F)cc2F)cc1)N1CC[C@](CCCO)(c2ccc(F)cc2)OC1=O [EXAMPLE 261, (R)-3-((S)-1-(2′,4′-difluorobiphenyl-4-yl)propyl)-6-(4-fluorophenyl)-6-(3-hydroxypropyl)-1,3-oxazinan-2-one]	< 100 nM	–	inhibition at 0.1 µM [2]: 96.2%
C[C@@H](C1CCCCC1)N1CC[C@](CC(O)CO)(c2ccc(F)cc2)OC1=O (single isomer, unassigned) [EXAMPLE 197 Isomer 1]	< 100 nM	–	inhibition at 0.1 µM [2]: 90.4%
CNC(=O)c1cccc(-c2cccc(N3CCC(C)(c4ccccc4)OC3=O)c2)c1 (stereo not drawn) [EXAMPLE 31, N-methyl-3′-(6-methyl-2-oxo-6-phenyl-1,3-oxazinan-3-yl)biphenyl-3-carboxamide]	100 to 1000 nM	–	inhibition at 0.1111 µM [3]: 27.5%
C[C@@H](c1ccc(Br)cc1)N1CC[C@](CC(C)(C)CNS(C)(=O)=O)(c2ccc(F)cc2)OC1=O [EXAMPLE 608, N-(3-((R)-3-((S)-1-(4-bromophenyl)ethyl)-6-(4-fluorophenyl)-2-oxo-1,3-oxazinan-6-yl)-2,2-dimethylpropyl)methanesulfonamide]	< 100 nM	84.7%	–
C[C@@H](c1ccc(-c2cccs2)cc1)N1CC[C@](CCCO)(c2ccccc2)OC1=O [EXAMPLE 216, (R)-6-(3-hydroxypropyl)-6-phenyl-3-((S)-1-(4-(thiophen-2-yl)phenyl)ethyl)-1,3-oxazinan-2-one]	< 100 nM	–	inhibition at 0.1 µM [2]: 92.6%
C[C@@H](c1ccc(Br)cc1)N1CC[C@](CCN2CC[C@H](F)C2)(c2ccc(F)cc2)OC1=O [EXAMPLE 377, (R)-3-((S)-1-(4-bromophenyl)ethyl)-6-(4-fluorophenyl)-6-(2-((S)-3-fluoropyrrolidin-1-yl)ethyl)-1,3-oxazinan-2-one]	< 100 nM	72%	–
O=C1OC(CCO)(c2ccccc2F)CCN1c1cccc(-c2ccc(F)cc2F)[n+]1[O-] (stereo not drawn) [EXAMPLE 132, 2-(2,4-difluorophenyl)-6-(6-(2-fluorophenyl)-6-(2-hydroxyethyl)-2-oxo-1,3-oxazinan-3-yl)pyridine 1-oxide]	100 to 1000 nM	–	inhibition at 0.1111 µM [3]: 30.4%
CC[C@@H](c1ccc(Br)cc1)N1CC[C@](CC(O)CO)(c2ccccc2)OC1=O (single isomer, unassigned) [EXAMPLE 239 Isomer 1]	< 100 nM	–	inhibition at 0.1 µM [2]: 91.5%
CC(O)C[C@]1(c2ccc(F)cc2)CCN([C@@H](C)c2ccc(-c3ccc(F)cc3F)cc2)C(=O)O1 (single isomer, unassigned) [EXAMPLE 137 Isomer 1]	< 100 nM	–	–
Cc1cc(-c2ccc([C@H](C)N3CC[C@](CC(C)(C)O)(c4ccc(F)cc4)OC3=O)cc2)ccn1 [EXAMPLE 449, (S)-6-(4-fluorophenyl)-6-(2-hydroxy-2-methylpropyl)-3-((S)-1-(4-(2-methylpyridin-4-yl)phenyl)ethyl)-1,3-oxazinan-2-one]	–	–	inhibition at 0.1111 µM (read-out: Average % inhibition at 111.1 nM, Biological Test Example 1, 111.1 nM): 99.4%
C[C@@H](c1ccc(Br)cc1)N1CC[C@](CC(=O)CO)(c2ccc(F)cc2)OC1=O [EXAMPLE 527, (S)-3-((S)-1-(4-bromophenyl)ethyl)-6-(4-fluorophenyl)-6-(3-hydroxy-2-oxopropyl)-1,3-oxazinan-2-one]	< 100 nM	89.7%	–
CC1(c2ccccc2)CCN(c2cccc(-c3c(Cl)cccc3Cl)c2)C(=O)O1 (stereo not drawn) [EXAMPLE 22, 3-(2′,6′-dichlorobiphenyl-3-yl)-6-methyl-6-phenyl-1,3-oxazinan-2-one]	< 100 nM	–	inhibition at 0.1111 µM [3]: 88.9%
C[C@@H](c1ccc(Br)cc1)N1CC[C@](CCN(C)S(C)(=O)=O)(c2ccccc2)OC1=O [EXAMPLE 529, N-(2-((S)-3-((S)-1-(4-bromophenyl)ethyl)-2-oxo-6-phenyl-1,3-oxazinan-6-yl)ethyl)-N-methylmethanesulfonamide]	< 100 nM	93.7%	–
C[C@@H](c1ccc(F)cc1)N1CC[C@](CCC(C)(C)O)(c2ccc(F)cc2)OC1=O [EXAMPLE 410, (R)-6-(4-fluorophenyl)-3-((S)-1-(4-fluorophenyl)ethyl)-6-(3-hydroxy-3-methylbutyl)-1,3-oxazinan-2-one]	< 100 nM	52%	–

SMILES	IC50 [1]	inhibition at 0.1 µM [4]	also measured
C[C@@H](c1ccc(-c2ccc(CN)cc2)cc1)N1CC[C@](CCCO)(c2ccccc2)OC1=O [EXAMPLE 495, (R)-3-((S)-1-(4′-(aminomethyl)biphenyl-4-yl)ethyl)-6-(3-hydroxypropyl)-6-phenyl-1,3-oxazinan-2-one]	< 100 nM	95.8%	–
O=C1OC(CCO)(c2ccccc2)CCN1c1cccc(Br)c1 (stereo not drawn) [EXAMPLE 74, 3-(3-bromophenyl)-6-(2-hydroxyethyl)-6-phenyl-1,3-oxazinan-2-one]	< 100 nM	–	inhibition at 0.1111 µM [3]: 70%
C[C@@H](c1ccc(-c2ccc(F)cc2F)cc1)N1CC[C@](CC(O)CO)(c2ccc(F)cc2)OC1=O (single isomer, unassigned) [EXAMPLE 52 Isomer 1]	< 100 nM	–	inhibition at 0.1 µM [2]: 92.8%
COc1ccc([C@H](C)N2CC[C@@](C)(c3ccc(CO)cc3)OC2=O)cc1 (single isomer, unassigned) [EXAMPLE 429 Isomer 2]	> 100 nM	23%	–
C[C@@H](c1ccc(Cl)cc1F)N1CC[C@](CCCNS(C)(=O)=O)(c2ccc(F)cc2)OC1=O [EXAMPLE 602, N-(3-((R)-3-((S)-1-(4-chloro-2-fluorophenyl)ethyl)-6-(4-fluorophenyl)-2-oxo-1,3-oxazinan-6-yl)propyl)methanesulfonamide]	< 100 nM	98.6%	–
C[C@@H](c1ccc(Br)cc1)N1CC[C@](CCN2CC[C@@H](F)C2)(c2ccc(F)cc2)OC1=O [EXAMPLE 378, (R)-3-((S)-1-(4-bromophenyl)ethyl)-6-(4-fluorophenyl)-6-(2-((R)-3-fluoropyrrolidin-1-yl)ethyl)-1,3-oxazinan-2-one]	< 100 nM	70%	–
CC(O)C[C@]1(c2ccc(F)cc2)CCN([C@@H](C)c2ccc(F)cc2)C(=O)O1 (stereo partly drawn) [EXAMPLE 408, (6S)-6-(4-fluorophenyl)-3-((S)-1-(4-fluorophenyl)ethyl)-6-(2-hydroxypropyl)-1,3-oxazinan-2-one]	< 100 nM	90.2%	–
O=C(OCc1ccccc1)N1CCC[C@H](N2CC[C@](CCCO)(c3ccc(F)cc3)OC2=O)C1 [EXAMPLE 340, (S)-benzyl 3-((R)-6-(4-fluorophenyl)-6-(3-hydroxypropyl)-2-oxo-1,3-oxazinan-3-yl)piperidine-1-carboxylate]	< 100 nM	–	inhibition at 0.1 µM (read-out: Average % inhibition at 100 nM): 75.9%
CC1(c2ccccc2)CCN(c2cccc(-c3ccc(S(=O)(=O)N4CCCC4)cc3)c2)C(=O)O1 (stereo not drawn) [EXAMPLE 16, 6-methyl-6-phenyl-3-(4′-(pyrrolidin-1-ylsulfonyl)biphenyl-3-yl)-1,3-oxazinan-2-one]	100 to 1000 nM	–	inhibition at 0.1111 µM [3]: 35.7%
Cc1nnc(CC[C@]2(c3ccccc3)CCN([C@@H](C)c3ccc(Br)cc3)C(=O)O2)s1 [EXAMPLE 601, (R)-3-((S)-1-(4-bromophenyl)ethyl)-6-(2-(5-methyl-1,3,4-thiadiazol-2-yl)ethyl)-6-phenyl-1,3-oxazinan-2-one]	< 100 nM	89.4%	–
Cc1cc(-c2ccc([C@H](C)N3CC[C@](CCCO)(c4ccc(F)cc4)OC3=O)cc2)ccn1 [EXAMPLE 311, (R)-6-(4-fluorophenyl)-6-(3-hydroxypropyl)-3-((S)-1-(4-(2-methylpyridin-4-yl)phenyl)ethyl)-1,3-oxazinan-2-one]	< 100 nM	96.7%	–
C[C@@H](c1ccccc1F)N1CC[C@](CCCO)(c2ccc(F)cc2)OC1=O [EXAMPLE 284, (R)-6-(4-fluorophenyl)-3-((S)-1-(2-fluorophenyl)ethyl)-6-(3-hydroxypropyl)-1,3-oxazinan-2-one]	< 100 nM	–	inhibition at 0.1 µM [2]: 97.7%
C[C@@H](c1ccc(-c2ccc(F)cc2)cc1)N1CC[C@](CCO)(c2cccs2)OC1=O (single isomer, unassigned) [EXAMPLE 218 Isomer 1]	< 100 nM	–	inhibition at 0.1 µM [2]: 97.4%
CC(C)C1(CCCO)CCN([C@@H](C)c2ccc(Br)cc2)C(=O)O1 (single isomer, unassigned) [EXAMPLE 200 Isomer 1]	< 100 nM	–	–
C[C@@H](c1ccc(Br)cc1)N1CC[C@](CC(C)(C)NC(=O)C(C)(C)C)(c2ccccc2)OC1=O [EXAMPLE 693, N-(1-((S)-3-((S)-1-(4-bromophenyl)ethyl)-2-oxo-6-phenyl-1,3-oxazinan-6-yl)-2-methylpropan-2-yl)pivalamide]	–	–	IC50 (microsomes from CHO cells overexpressing human 11β-HSD1): > 100 nM; inhibition at 0.1 µM (read-out: Average % inhibition at 100 nM, 100 nM compound, microsomes from CHO cells overexpressing human 11β-HSD1): 17.6%
NC(=O)CC1(c2ccccc2)CCN(c2cccc(-c3ccc(F)cc3F)c2)C(=O)O1 (stereo not drawn) [EXAMPLE 76, 2-(3-(2′,4′-difluorobiphenyl-3-yl)-2-oxo-6-phenyl-1,3-oxazinan-6-yl)acetamide]	< 100 nM	–	inhibition at 0.1 µM [2]: 81%
